Test results as given in patent US20160031868A1, “BENZIMIDAZOLONE DERIVATIVES AS BROMODOMAIN INHIBITORS” (GILEAD SCIENCES, INC., priority 2013, published 2016).

Tests used:
BRD4-1 [1] = biological target: T1, BRD4-1 (Homo sapiens, UniProt O60885); assay: Biochemical ALPHA assay: binding of BRD4_1 to acetylated histone H4 peptide; conditions: 200 nM H4 peptide, 15 nM BRD4_1, 60 min at 25 °C; geometric mean of min. four determinations
T1 construct: made in house; host or cells: Escherichia coli
Method: Binding of the bromodomain BRD4_I to an acetylated histone H4 peptide was measured using a bead based Amplified Luminescent Proximity Homogeneous Assay (ALPHA). The synthetic peptide containing amino acids 1-18 of histone H4 was acetylated at lysine 5, 8, 12, 16 and conjugated to biotin ([…]-GSGSK-biotin) was purchased from Millipore. BRD4_I was expressed and purified from Escherichia coli as an N-terminal Hiss-tagged protein. Nickel-Chelate ALPHA acceptor beads (Perkin Elmer) were used to specifically bind BRD4—1 and ALPHA streptavidin donor beads (Perkin Elmer) were used because they specifically recognized the biotinylated H4 peptide. […] Assays were performed in 50 mM Hepes (pH 7.5), 150 mM NaCl, 0.1 mg/ml BSA, 0.01% (v/v) Brij, 0.5% (v/v) DMSO, 200 nM H4 peptide and 15 nM of BRD4—1 protein. After an assay reaction time of 60 minutes at 25° C., binding was measured with 20 µg/ml streptavidin donor beads and 20 μg/ml nickel-chelate acceptor beads. ALPHA signal was detected on an Envision plate reader ([…]; Em: 570 nm; Ex time: 180 ms). Data were normalized based on a positive (2 μM I-BET) and negative (DMSO) controls and IC50 values were calculated from the fit of the dose-response curves to a four-parameter equation. All IC50 values represent geometric mean values of a minimum of four determinations. These assays generally produced results within 3-fold of the reported mean.

MT-4 cells = assay: MT-4 proliferation assay in 384-well format (Cell Titer Glo); format: cell-based, human; conditions: Table 1, 5 days, 50% decrease in luminescence signal, read-out: CC50 MT4 384
Method: (§1) Compounds were tested in a standardized high-throughput 384-well assay format. Each compound was serially diluted 3-fold in 100% DMSO in polypropylene 384-well plates using a Biomek FX Workstation, and 0.4 μL compound added to an assay plate containing 40 μL RPMI media. Compounds were arranged in a horizontal pattern, with 10 concentrations per compound, and 8 compounds added per plate. Due to low DMSO tolerability, the final DMSO concentration never exceeded 0.5% (v/v). Each assay plate contained 10 μM Puromycin and 0.5% DMSO in RPMI-1640 as positive and negative controls respectively. MT-4 cells (HTLV-1 transformed, human T lymphoblastoid cells, NIH Aids Reagent program) were added in volumes of 35 μL per well and 2,000 cells per well using a Biotek uFlow Workstation (Biotek, Winooski, Vt.), and the plates subsequently incubated for 5 days at 37° C. in an incubator set at 5% CO2 and 90% humidity.
(§2) After 5 days, 22 μL Cell Titer Glo (Promega) was added to the assay plates with a Biotek uFlow Workstation. Plates were subsequently placed on a Perkin Elmer Envision Plate Reader for 5 minutes before the luminescence signal was read. CC50 values were calculated from the compound concentration that caused a 50% decrease in luminescence signal, a measure of toxicity, and calculated by non-linear regression using Pipeline Pilot software (Accelrys, San Diego, Calif.).

BRD4-1 [2] = biological target: T1, BRD4-1; assay: Biochemical HTRF (TR-FRET) assay: BRD4-1 binding to acetylated histone H4 peptide; conditions: 200 nM H4 peptide, 60 nM BRD4-1, 60 min at 25 °C; geometric mean; read-out: IC50 HTBS BRD4-1 HTRF
Method: (§3) Binding of the two tandem bromodomains, BRD4 I and BRD4—2, to an acetylated histone H4 peptide were measured using a homogeneous time resolved fluorescence resonance energy transfer (TR-FRET) assay. The synthetic peptide containing amino acids 1-18 of histone H4 was acetylated at lysine 5, 8, 12, 16 and conjugated to biotin ([…]-GSGSK-biotin) was purchased from Millipore. BRD4_I and BRD4—2 were expressed and purified from Escherichia coli as N-terminal His6-tagged proteins. An XL665 labeled anti-His antibody (Cisbio) was used to specifically bind BRD4 and a cryptate labeled streptavidin protein was used because it specifically recognized the biotinylated H4 peptide. […] Assays were performed in 50 mM Hepes (pH 7.5), 150 mM NaCl, 0.1 mg/ml BSA, 0.01% (v/v) Brij, 0.5% (v/v) DMSO and 200 nM H4 peptide at the following concentrations for each BRD4 isoform: 60 nM BRD4—1 and 120 nM BRD4—2. After an assay reaction time of 60 minutes at 25° C., binding was measured with 2 nM cryptate labeled streptavidin and 10 nM anti-His-XL665 antibody. TR-FRET signal was detected on an Envision plate reader (Ex: 320 nm; Em: 615/665 nm; 100 μs delay and 200 μs read window). Data were normalized based on a positive (2 μM I-BET) and negative (DMSO) controls and IC50 values were calculated from the fit of the dose-response curves to a four-parameter equation. All IC50 values represent geometric mean values of a minimum of four determinations. These assays generally produced results within 3-fold of the reported mean.

BRD4-2 = biological target: T2, BRD4-2 (Homo sapiens, UniProt O60885); assay: Biochemical HTRF (TR-FRET) assay: BRD4-2 binding to acetylated histone H4 peptide; conditions: 200 nM H4 peptide, 120 nM BRD4-2, 60 min at 25 °C; geometric mean; read-out: IC50 HTBS BRD4-2 HTRF
T2 construct: made in house; host or cells: Escherichia coli
Method: as §3

[3] = MT-4 proliferation assay in 384-well format (Cell Titer Glo); format: cell-based, human; conditions: human, MT-4 cells, Table 1, 50% decrease in luminescence signal, read-out: CC50 MT4 384
Method: as §1, §2

| IC50 (BRD4-1 [1]) [nM] | IC50 (BRD4-1 [2]) [nM] | IC50 (BRD4-2) [nM] | SMILES | CC50 (MT-4 cells) [nM] | CC50 at 5 days [3] [nM] |
| --- | --- | --- | --- | --- | --- |
| 45.2 | – | – | Cc1ccc2ncccc2c1-c1cc(-c2c(C)noc2C)cc2[nH]c(=O)[nH]c12 (single isomer, unassigned) [Example 13] | 51.6 | – |
| 30.8 | 135 | 119 | Cc1ccc2ncccc2c1-c1cc(-c2c(C)noc2C)cc2[nH]c(=O)[nH]c12 (racemic) [Example 2, 6-(3,5-dimethylisoxazol-4-yl)-4-(6-methylquinolin-5-yl)-1H-benzo[d]imidazol-2(3H)-one] | – | 19 |
| 241 | 511 | 168 | Cc1cnn(C)c1-c1cc(-c2c(C)noc2C)cc2[nH]c(=O)n(C)c12 [Example 8, 7-(1,4-dimethyl-1H-pyrazol-5-yl)-5-(3,5-dimethylisoxazol-4-yl)-1-methyl-1H-benzo[d]imidazol-2(3H)-one] | – | 117 |
| 222 | 438 | 174 | Cc1ccc2ncccc2c1-c1cc(-c2c(C)noc2C)cc2[nH]c(=O)oc12 [Example 11, 5-(3,5-dimethylisoxazol-4-yl)-7-(6-methylquinolin-5-yl)benzo[d]oxazol-2(3H)-one] | – | 421 |
| 234 | 350 | 144 | Cc1cnn(C)c1-c1cc(-c2c(C)noc2C)cc2[nH]c(=O)[nH]c12 [Example 5] | – | 233 |
| 233 | 316 | 314 | Cc1noc(C)c1-c1cc(-c2cccnc2-c2ccccc2)c2oc(=O)[nH]c2c1 [Example 12, 5-(3,5-dimethylisoxazol-4-yl)-7-(2-phenylpyridin-3-yl)benzo[d]oxazol-2(3H)-one] | – | 761 |
| 37.2 | 119 | 141 | Cc1noc(C)c1-c1cc(-c2cccnc2-c2ccccc2)c2[nH]c(=O)[nH]c2c1 [Example 4, 6-(3,5-dimethylisoxazol-4-yl)-4-(2-phenylpyridin-3-yl)-1H-benzo[d]imidazol-2(3H)-one] | – | 103 |
| 14 | – | – | Cc1ccc2ncccc2c1-c1cc(-c2c(C)noc2C)cc2[nH]c(=O)[nH]c12 (single isomer, unassigned) [Example 14] | 9.54 | – |
| 46.8 | 132 | 108 | Cc1noc(C)c1-c1cc(-c2cccc3c2CCC(=O)N3C)c2[nH]c(=O)[nH]c2c1 [Example 6, 5-(6-(3,5-dimethylisoxazol-4-yl)-2-oxo-2,3-dihydro-1H-benzo[d]imidazol-4-yl)-1-methyl-3,4-dihydroquinolin-2(1H)-one] | – | 53.9 |
